From patent publication US10035816B2, “Compound for treating respiratory syncytial virus infection and preparation method and use thereof” (SHANDONG UNIVERSITY, priority 2016, dated 2018)

Assays:
Type in all cases: cell-based
[1] = system: RSV replication and Hh activity; assay: Coefficient of inhibition (ICrh): RSV replication inhibition vs. Hh pathway inhibition relative to CPM; conditions: ratio of RSV inhibition to Hh inhibition of the analog divided by the same ratio of CPM; >1 favorable (FIG. 6)
Text: To assess the differential Hh pathway inhibition vs. replication inhibition of analogs (cpd), we determined a coefficient of inhibition (ICrh).
A score higher than 1 indicates a favorable profile.
The substep of screening compounds is that selecting the compounds with ICrh data larger than 1, and filtering out the compounds with ICrh data smaller than 1. Furthermore, the compounds with larger ICrh data will be selected preferentially.

[2] = system: Human respiratory syncytial virus Long strain; assay: RSV replication assay (virus yield / focus titration in HEp-2 cells); conditions: for maximum inhibition effect on RSV replication: compounds tested at 2 ìM and 8 ìM, HEp-2 cells, MOI 0.1, compared with blank control (FIG. 4)
Procedure: The detection procedure of compound effect on RSV replication inhibiting is as following. Human respiratory syncytial virus Long strain and HEp-2 cells were used for infection assays. Cells were maintained in DMEM, supplemented with penicillin/streptomycin and 10% FBS, and incubated at 37° C., 5% CO2. Virus was passaged in HEp-2 cells in the same conditions, but with 2% FBS. Virus stocks were prepared by infecting confluent HEp-2 cells at a low multiplicity of infection (MOI) of 0.1 for two to three days. Cells and virus-containing supernatant were then subjected to a single freeze/thaw cycle at −80° C. to release cell-bound virus, and the sample was clarified by centrifugation at 2000×g for 10 min at 4° C. The supernatant was homogenized, aliquoted and stored at −20° C.
Compounds were tested either during virus adsorption for 1 h at 4° C. to investigate viral entry, post-adsorption for 72 h at 37° C. to investigate viral propagation and replication, or during all stages of infection. The concentration of compound resulting in 50% inhibition (IC50) of virus replication was determined by focus counting (viral entry) or focus size measurement (viral propagation) and was determined using non-linear regression analysis using GraphPad Prism. To assess the cytotoxicity of compounds, a CellTiter-Glo Luminescent Cell Viability Assay was carried following the manufacturer's instruction in the conditions of the focus reduction assay.
As shown in the figure, compounds were tested at 2 concentrations (2 ìM, 8 ìM) in the RSV replication assay. The control (compound-free) is scored at 100% replication.
Human respiratory syncytial virus Long strain (ATCC reference VR-26) and HEp-2 cells (ATCC reference CCL-23) were used for infection assays. Cells were maintained in DMEM, supplemented with penicillin/streptomycin and 10% FBS, and incubated at 37° C., 5% CO2. Virus was passaged in HEp-2 cells in the same conditions, but with 2% FBS. Virus stocks were prepared by infecting confluent HEp-2 cells at a low multiplicity of infection (MOI) of 0.1 for two to three days. […]

[3] = system: Smo-dependent SAG induced gene expression (Hh signal pathway); assay: Hedgehog (Hh) signal pathway inhibition assay, Gli-binding site-luciferase reporter in NIH3T3 cells; conditions: compound 10 uM, SAG 0.5 ìM, control (compound-free, presence of SAG) = 100% gene expression (FIG. 5)
Procedure: The detection procedure of compound effect on Hh signal pathway inhibiting is as following. NIH3T3 cells are seeded cells in 6 well plates, or 12 well plate one day in advance, with 5% FBS DMEM, without antibiotics per well so that they will be 90˜95% confluent at the time of transfection. Plasmids are diluted with Lipofectamine 2000 (total volume is 100-1000 ìl) and added to each well containing cells and medium, followed by incubation at 37° C. in a CO2 incubator for 48 h. […] At the end of the incubation, cells are washed, lysed and lysate transferred to a 96-well white plate. LAR II reagent is added (from Promega, Dual-luciferase reporter assay system) and samples read in a luminescence reader.
The control (compound-free, presence of SAG) is scored at 100% gene expression.

| Molecule | coefficient of inhibition on RSV replication and Hh activity (ICrh) [1] | maximum inhibition effect on RSV replication [2] | inhibition of SAG-induced gene expression [3] | RSV replication in the presence of compound ([2]; compound-free control scored at 100% replication (FIG. 4)) |
| --- | --- | --- | --- | --- |
| CCNC(=O)O[C@H]1CC[C@@]2(C)C(=CC[C@H]3[C@@H]4CC[C@]5(O[C@@H]6C[C@H](C)CN(C(=O)C(F)(F)F)[C@H]6[C@H]5C)C(C)=C4C[C@@H]32)C1 [S1-2] | 1.446 | 99% | 36% | – |
| cyclopamine [CPM, reference compound] | – | – | 56% | 0% |
| CC1=C2C[C@H]3[C@@H](CC=C4C[C@@H](OC(=O)NC5CC5)CC[C@@]43C)[C@@H]2CC[C@]12O[C@@H]1C[C@H](C)CN(C(=O)C(F)(F)F)[C@H]1[C@H]2C [S1-4] | 1.617 | 88% | 5% | – |
